Experimental findings from ChEMBL document CHEMBL1126300, “Quinoline antifolate thymidylate synthase inhibitors: variation of the C2- and C4-substituents” (J Med Chem, 1992) are described below.

In one experiment the target is Thymidylate synthase (Mus musculus, UniProt P07607). Nature of the experiment: In vitro inhibitory activity against thymidylate synthase from L1210 mouse leukemia cells. The experiment is classed as cell-based.
For a further experiment, the system named is L1210. Nature of the experiment: In vitro inhibition of L1210 mouse leukemia cell growth in culture. It is filed as functional, cell-based.
The next experiment deals with WIL2. Nature of the experiment: Inhibition of human derived cell line W1-L2 cell proliferation. The experiment is classed as functional, cell-based.

Chain of Thymidylate synthase (P07607 whole entry): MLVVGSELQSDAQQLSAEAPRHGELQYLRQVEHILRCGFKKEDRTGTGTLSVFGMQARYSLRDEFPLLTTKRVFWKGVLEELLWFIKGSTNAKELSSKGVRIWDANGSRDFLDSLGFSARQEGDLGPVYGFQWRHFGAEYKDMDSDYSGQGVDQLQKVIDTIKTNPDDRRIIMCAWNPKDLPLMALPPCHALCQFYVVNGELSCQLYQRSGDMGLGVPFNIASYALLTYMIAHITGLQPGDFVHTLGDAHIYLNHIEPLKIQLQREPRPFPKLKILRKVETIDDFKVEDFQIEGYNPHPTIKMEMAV

The IC50 is the concentration that inhibits the measured activity by half. Consider `CCN(Cc1ccc2nc(C)cc(Cl)c2c1)c1ccc(C(=O)N[C@@H](CCC(=O)O)C(=O)O)cc1`, for which the IC50 against Thymidylate synthase came out at 740 nM; in the experiment with L1210, 23 µM.

For the molecule `C#CCN(Cc1ccc2nc(C(F)(F)F)cc(Cl)c2c1)c1ccc(C(=O)N[C@@H](CCC(=O)O)C(=O)O)cc1`, the figures for the IC50 on Thymidylate synthase and in the experiment on L1210 were 150 nM and above 100 µM, respectively.

As to `C#CCN(Cc1ccc2nc(CF)cc(Cl)c2c1)c1ccc(C(=O)N[C@@H](CCC(=O)O)C(=O)O)cc1`, the IC50 is 620 nM on Thymidylate synthase and above 100 µM with L1210.

On to `CCN(Cc1ccc2nccc(Cl)c2c1)c1ccc(C(=O)N[C@@H](CCC(=O)O)C(=O)O)cc1`, for which the values for the IC50 against Thymidylate synthase and in the experiment on L1210 were 1130 nM and 30 µM, respectively.

Consider `C#CCN(Cc1ccc2nc(C)cc(Br)c2c1)c1ccc(C(=O)N[C@@H](CCC(=O)O)C(=O)O)cc1`, for which the results for the IC50 against Thymidylate synthase and in the experiment on L1210 were 220 nM and 14 µM, respectively.

As for `Cc1cc(Cl)c2cc(CN(C)c3ccc(C(=O)N[C@@H](CCC(=O)O)C(=O)O)cc3)ccc2n1`, the IC50 at Thymidylate synthase worked out at 2300 nM; in the experiment on L1210 it was 24 µM.

Consider `C#CCN(Cc1ccc2nc(C(=O)O)cc(Cl)c2c1)c1ccc(C(=O)N[C@@H](CCC(=O)O)C(=O)O)cc1`, for which the IC50 is 31000 nM at Thymidylate synthase and above 100 µM in the experiment with L1210.

For `C#CCN(Cc1ccc2nc(Cl)ccc2c1)c1ccc(C(=O)N[C@@H](CCC(=O)O)C(=O)O)cc1`, the IC50 on Thymidylate synthase was 2600 nM; in the experiment on L1210 it was above 100 µM.

Turning to `C#CCN(Cc1ccc2nc(C)cc(Cl)c2c1)c1ccc(C(=O)N[C@@H](CCC(=O)O)C(=O)O)cc1`, the IC50 against Thymidylate synthase is 250 nM; in the experiment on L1210, 8 µM.

As to `C#CCN(Cc1ccc2nc(NC(C)=O)cc(Cl)c2c1)c1ccc(C(=O)N[C@@H](CCC(=O)O)C(=O)O)cc1`, the IC50 against Thymidylate synthase was 1200 nM; in the experiment on L1210 it was above 100 µM.

In the case of `C#CCN(Cc1ccc2nc(Cl)cc(C)c2c1)c1ccc(C(=O)N[C@@H](CCC(=O)O)C(=O)O)cc1`, the IC50 against Thymidylate synthase was 120 nM; in the experiment with L1210, above 100 µM.

Consider `C#CCN(Cc1ccc2nc(C)cc(C#N)c2c1)c1ccc(C(=O)N[C@@H](CCC(=O)O)C(=O)O)cc1`, for which the results for the IC50 against Thymidylate synthase and in the experiment with L1210 were 1500 nM and 75 µM, respectively.

Consider `CCN(Cc1ccc2nc(N)cc(OC)c2c1)c1ccc(C(=O)N[C@@H](CCC(=O)O)C(=O)O)cc1`, for which the IC50 at Thymidylate synthase came out at 1900 nM; with L1210 it was 100 µM.

For `C#CCN(Cc1ccc2nc(C)cc(Br)c2c1)c1ccc(C(=O)N[C@@H](CCC(=O)O)C(=O)O)c(F)c1`, the IC50 worked out at 96 nM against Thymidylate synthase and 1 µM with L1210.

As to `C#CCN(Cc1ccc2nc(N)cc(Cl)c2c1)c1ccc(C(=O)N[C@@H](CCC(=O)O)C(=O)O)c(F)c1`, the IC50 on Thymidylate synthase came to 48 nM; with L1210, 2.9 µM.

Regarding `C#CCN(Cc1ccc2nc(CC)cc(Cl)c2c1)c1ccc(C(=O)N[C@@H](CCC(=O)O)C(=O)O)cc1`, the IC50 against Thymidylate synthase is 990 nM; with L1210, above 100 µM.

In the experiment with L1210, `C#CCN(Cc1ccc2nc(C)cc(C)c2c1)c1ccc(C(=O)N[C@@H](CCC(=O)O)C(=O)O)cc1` showed an IC50 above 100 µM.

Consider `Cc1cc(Cl)c2cc(CNc3ccc(C(=O)N[C@@H](CCC(=O)O)C(=O)O)cc3)ccc2n1`, for which the figures for the IC50 against Thymidylate synthase and with L1210 were 38000 nM and above 100 µM, respectively.

With `C#CCN(Cc1ccc2nc(N)cc(C)c2c1)c1ccc(C(=O)N[C@@H](CCC(=O)O)C(=O)O)cc1`, the half-inhibitory concentration (IC50) against Thymidylate synthase is 350 nM; in the experiment with L1210, 4 µM.

In the case of `C#CCN(Cc1ccc2nc(C)cc(O)c2c1)c1ccc(C(=O)N[C@@H](CCC(=O)O)C(=O)O)cc1`, the IC50 was 6300 nM against Thymidylate synthase and above 100 µM with L1210.

Turning to `C#CCN(Cc1ccc2[nH]c(N)nc(=O)c2c1)c1ccc(C(=O)N[C@@H](CCC(=O)O)C(=O)O)cc1`, the IC50 in the experiment with WIL2 came to 440 nM.

As for `C#CCN(Cc1ccc2nc(Cl)cc(Cl)c2c1)c1ccc(C(=O)N[C@@H](CCC(=O)O)C(=O)O)c(F)c1`, the results for the IC50 at Thymidylate synthase and in the experiment on L1210 were 23 nM and 1 µM, respectively.

Turning to `C#CCN(Cc1ccc2nc(C)ccc2c1)c1ccc(C(=O)N[C@@H](CCC(=O)O)C(=O)O)cc1`, the results for the IC50 at Thymidylate synthase and with L1210 were 7900 nM and above 100 µM, respectively.

Turning to `C#CCN(Cc1ccc2nc(C)cc(Cl)c2c1)c1ccc(C(=O)N[C@@H](CCC(=O)O)C(=O)O)c(F)c1`, the IC50 came to 66 nM against Thymidylate synthase and 0.42 µM with L1210.

On to `C#CCN(Cc1ccc2nc(Cl)cc(OC)c2c1)c1ccc(C(=O)N[C@@H](CCC(=O)O)C(=O)O)cc1`, for which, at Thymidylate synthase, half-maximal inhibition (IC50) required 150 nM.

On to `C#CCN(Cc1ccc2nc(C(N)=O)cc(Cl)c2c1)c1ccc(C(=O)N[C@@H](CCC(=O)O)C(=O)O)cc1`, for which the 50% inhibitory concentration (IC50) at Thymidylate synthase is 1900 nM; in the experiment on L1210, above 100 µM.

Molecule `C#CCN(Cc1ccc2nc(Cl)cc(Cl)c2c1)c1ccc(C(=O)N[C@@H](CCC(=O)O)C(=O)O)cc1` showed an IC50 in the experiment with L1210 of 8 µM.

`C#CCN(Cc1ccc2nc(C)cc(OC)c2c1)c1ccc(C(=O)N[C@@H](CCC(=O)O)C(=O)O)cc1`: the IC50 against Thymidylate synthase was 6000 nM; in the experiment on L1210, above 100 µM.

Consider `C#CCN(Cc1ccc2nc(OC)cc(Cl)c2c1)c1ccc(C(=O)N[C@@H](CCC(=O)O)C(=O)O)cc1`, for which the IC50 on Thymidylate synthase was 9000 nM; in the experiment on L1210 it was above 100 µM.

With `CCN(Cc1ccc2nc(CO)cc(Cl)c2c1)c1ccc(C(=O)N[C@@H](CCC(=O)O)C(=O)O)cc1`, the results for the IC50 on Thymidylate synthase and in the experiment with L1210 were 1050 nM and above 100 µM, respectively.

`C#CCN(Cc1ccc2nc(C)cc(SC)c2c1)c1ccc(C(=O)N[C@@H](CCC(=O)O)C(=O)O)cc1`: the values for the IC50 on Thymidylate synthase and in the experiment with L1210 were 8900 nM and 100 µM, respectively.

With `C#CCN(Cc1ccc2nc(N)cc(Cl)c2c1)c1ccc(C(=O)N[C@@H](CCC(=O)O)C(=O)O)cc1`, the IC50 against Thymidylate synthase turned out to be 96 nM; in the experiment with L1210 it was 11 µM.
